Like-named read-outs stand apart in the source and are kept apart here.
How the values were obtained:
Bbp [1] = type: biochemical, Brucella suis
Bbp [2] = type: biochemical, Brucella suis; remark: listed apart in the source

| Structure (SMILES) | Km (Bbp [1]) [µM] | Km (Bbp [2]) [µM] |
| --- | --- | --- |
| O=P(O)(O)OC[C@H]1OC(O)(COP(=O)(O)O)[C@@H](O)[C@@H]1O (some centres unmarked) [F1,6bP] | 53.2 ± 6.3 |  |
| O=C(COP(=O)(O)O)[C@@H](O)[C@H](O)[C@H](O)[C@H](O)COP(=O)(O)O [S1,7bP] |  | 13.9 ± 3.2 |

From publication PMC11005471 (Frontiers in Veterinary Science, 2024)
